Experiments:
[1] = target: hypoxanthine phosphoribosyltransferase (Salmonella typhimurium); assay: Kinetic inhibition constant of compound with bacterial Hypoxanthine Phosphoribosyltransferase (HPRT)
[2] = target: hypoxanthine phosphoribosyltransferase (Trypanosoma cruzi); assay: Kinetic inhibition constant of compound with Trypanosoma cruzi Hypoxanthine Phosphoribosyltransferase (HPRT)

Row | Ki [1] [nM] | Structure (SMILES) | Ki [2] [nM]
1 | > 25000 | O=C(Nc1cc2c3ccccc3ccc2c2ccccc12)C(Cl)Cl [2,2-Dichloro-N-chrysen-6-yl-acetamide] | 500
2 |  | Fc1cc2c3ccccc3ccc2c2ccccc12 [6-Fluoro-chrysene] | 2800
3 |  | O=[N+]([O-])c1cc2c3ccccc3ccc2c2ccccc12 [6-Nitro-chrysene] | 6700
4 |  | Nc1cc2c3ccccc3ccc2c2ccccc12 [Chrysen-6-ylamine] | 600

— BindingDB's records for doi:10.1021/jm030061i (University of Connecticut, 2003)
